# Results taken from patent US20230096897A1, “Lymphocyte Population and Methods for Producing Same” (AVM Biotechnology, LLC, priority 2020, published 2023).
# Entries after “also recorded” stand apart in the source; their conditions may differ. Like-named read-outs stand apart in the source and are kept apart here.
# Assays:
# [1] = test system: CD3high, CD45dim, CD49b+ cells; test: Venetoclax pre-treatment before high dose DSP in female NOD mice; format: in vivo, mouse; settings: 48 hours
# Protocol: Female NOD mice of 10 weeks of age are treated with 12.5 mg/kg up to 50 mg/kg venetoclax 6-18 hours before oral gavage of a HED 30 mg/kg DSP dose. […] CD3high, CD45dim, CD49b+ cells are reduced from—70 cells/microliter with DSP alone to—40 cells/microliter with 12.5 mg/kg venetoclax pretreatment, to—20 cells/microliter with 25 mg/kg venetoclax pretreatment, to—15 cells/microliter with 50 mg/kg venetoclax pretreatment. Venetoclax is a Bcl-2 inhibitor.
# female NOD mice [2] = test: Prevention or delay of hyperglycemia in spontaneously diabetic female NOD mice; format: in vivo, mouse; settings: for First Onset of hyperglycemia (weeks of age): dosing from 10 weeks of age, AVM0703 single oral HED 18 or 30 mg/kg, cyclosporine 5 then 10 mg/kg twice weekly, venetoclax 25 mg/kg; for % Hyperglycemic at 22 wks of age / Median Time to diabetes (days after 10 wks of age): same groups
# Protocol: Female NOD mice were ordered at 9 weeks of age.
# Body weights and blood glucose levels were monitored weekly. Body condition was monitored three times per week. Oral glucose tolerance was determined in all surviving mice who reached 30 weeks of age. Remaining mice were necropsied and autoreactive lymphocytes in the pancreas and adjacent lymph nodes were determined by flow cytometry. Pancreatitis was determined by H&E staining (8 out of 15 per group). Pancreatic Beta cell surface area was measured by staining for insulin. […] Pancreas and pancreas lymph nodes were examined for autoreactive, insulin-specific CD4+ T cells by using a magnetic enrichment method together with tetramer reagents.
# A20 B cell lymphoma [3] = test: A20 lymphoma study AVM_CANMOD_03 (dose response); format: in vivo, mouse
# Protocol: In a second study (“AVM_CANMOD_03”), BALB/c mice (n=5 per group) were dosed with increasing concentrations of AVM0703 HED DP (7, 18, and 26 mg/kg) on Days 9, 16, 24, and 31 after tumor inoculation. Treatment started when the tumors were approximately […], as opposed to well-established tumors of 150 mm^3 as in study AVM_CANMOD_01.
# Based on evidence of pseudogrowth in tumors from AVM0703-treated mice in study AVM_CANMOD_01, tumors (n=2 per group) were sent to HistoTox Labs for slicing and immunohistochemistry. Hematoxylin and eosin stains identified several regions of necrosis and the slides were scored from 0 to 5 depending on severity.
# [4] = test system: peripheral blood mononuclear cells or single cell splenocytes; test: In vitro apoptosis of mouse blood mononuclear cells and splenocytes; format: cell-based; settings: up to 500 micromolar; out to 72 hours
# Protocol: Mononuclear cells from peripheral blood of naïve male C57Bl/6 mice or single cell splenocytes were incubated with equivalent concentrations of AVM0703 as the peak blood concentrations of acute high dose AVM0703 achieve in vivo.
# Blood and spleens were taken from naïve C57B16 mice. Mononuclear cells were isolated from blood and single cell splenocytes were isolated from the spleen. […] Therefore, the complete in vivo T and B lymphocyte ablation appears to be mediated by the AVM-NKT, and not a receptor based mechanism such as activation of a glucocorticoid receptor.
# AVM-NKT cells = settings: for Time after treatment at which AVM-NKT cells appear in peripheral blood: high doses of glucocorticoid receptor agonists
# A20 cells = test: In vitro apoptosis of A20 cells; format: cell-based, mouse; settings: 72 hours after high dose dexamethasone treatment in vitro
# [5] = test system: peripheral blood lymphocytes
# Protocol: For initial lymphodepletion studies, naïve C57Bl/6 mice were treated with 18 mg/kg HED DP by oral gavage. Male C57BL/6 mice were obtained from Taconic Bioscience (Germantown, N.Y.) and acclimated to laboratory conditions for at least one week. […] When mice reached study timepoint, they were euthanized as follows. Mice were anesthetized with isoflurane gas. Once anesthetized, blood was drawn via cardiac puncture and place immediately in heparin-lined microtubes. 10 mL of 5 U/mL of Heparin/PBS was used for infused by slow push for retrograde perfusion via the abdominal aorta to flush out all remaining blood from the vasculature. […] The remaining blood was sent to Phoenix Labs (Mukilteo, Wash.) for Complete Blood Counts and Clinical Chemistries
# female NOD mice [6] = test: Reversal of early onset and established diabetes in female NOD mice; settings: mouse, in vivo
# Protocol: Female NOD mice are ordered at 9 weeks of age. Blood glucose levels are measured weekly starting at 10 weeks of age. Once a mouse has non-fasting blood glucose above 250 mg/dl, another measure is taken the following day.
# For reversal of new-onset diabetes AVM0703 dosing is started one day after a mouse has had two consecutive days of elevated non-fasting blood glucose levels. Insulin pellets are implanted subcutaneously on the second day of elevated blood glucose levels. For reversal of established diabetes, two consecutive weeks of elevated blood glucose are measured, insulin pellets are implanted on day 8 after the first day of measured elevated blood glucose levels and AVM0703 is dosed on day 14 after the first day of measured elevated blood glucose levels.
# A20 B cell lymphoma [7] = test: A20 lymphoma study AVM_CANMOD_05, lymphodepletion subset
# A20 B cell lymphoma [8] = test: A20 lymphoma study AVM_CANMOD_05, endpoint analysis subset; format: in vivo, mouse
# A20 B cell lymphoma [9] = test: A20 B-cell lymphoma models, summary of studies; format: in vivo, mouse
# Description: The mouse A20 lymphoma model is a very aggressive tumor model because it employs multiple direct (expression of immunoinhibitory molecule PD-L1, IDO, and IL-10, and lack of expression of CD80 costimulatory molecule) and indirect (downregulation of APC function and induction of Treg cells) immune evasion mechanisms. In addition, in the studies described in the following, AVM0703 was not dosed until A20 tumors were very well-established, at between ˜120 to 400 mm^3 in volume.
# Male BALB/c mice were inoculated subcutaneously in the flank with A20 B lymphoma cells embedded in Matrigel. Tumor volumes were monitored by caliper measurements, and when the tumors were well established at about 150 mm^3, or very well established for study “AVM_CANMOD_05” at about 400 mm^3, mice were treated with AVM0703 at HED doses of 7, 18, 22, or 25 mg/kg. Endpoint is typically defined as tumor volume of 1500 mm^3.
# These mice were pooled and a contingency table analysis was performed using Fisher's exact test.
# A20 B cell lymphoma [10] = test: A20 lymphoma study AVM_CANMOD_01 (repeat dosing); format: in vivo, mouse
# [11] = test system: CCRF-CEM human T cell lymphoma; test: CCRF-CEM human T cell lymphoma xenograft in NCr nude mice (AVM_CANMOD_06)
# Protocol: A pilot study (“AVM_CANMOD_06”) was performed to investigate anti-tumor efficacy of AVM0703 in a human T cell lymphoma model, CCRF-CEM.
# Tumor volume was assessed 3 times per week and endpoint was defined as either a tumor volume greater than 1500 mm^3 or greater than a 20% loss from initial body weight measurement.
# [12] = pharmacodynamic (biologic) half-life; cited from earlier work
# [13] = high-dose dexamethasone, naïve mice
# [14] = 18, 22, and 25 mg/kg pooled, n = 40
smiles,measurement,setting,value
"CC1(C)CCC(CN2CCN(c3ccc(C(=O)NS(=O)(=O)c4ccc(NCC5CCOCC5)c([N+](=O)[O-])c4)c(Oc4cnc5[nH]ccc5c4)c3)CC2)=C(c2ccc(Cl)cc2)C1 [Venetoclax, venetoclax, reference compound]","CD3high, CD45dim, CD49b+ cells mobilized into the blood",[1]; 12.5 mg/kg venetoclax 6-18 hours before HED 30 mg/kg DSP,40 cells/microliter
same,"CD3high, CD45dim, CD49b+ cells mobilized into the blood",[1]; 25 mg/kg venetoclax 6-18 hours before HED 30 mg/kg DSP,20 cells/microliter
same,"CD3high, CD45dim, CD49b+ cells mobilized into the blood",[1]; 50 mg/kg venetoclax 6-18 hours before HED 30 mg/kg DSP,15 cells/microliter
same,First Onset of hyperglycemia (weeks of age),female NOD mice [2],14 weeks of age
same,% Hyperglycemic at 22 wks of age,female NOD mice [2],90%
same,Median Time to diabetes (days after 10 wks of age),female NOD mice [2],51 days
"C[C@@H]1C[C@H]2[C@@H]3CCC4=CC(=O)C=C[C@]4(C)[C@@]3(F)[C@@H](O)C[C@]2(C)[C@@]1(O)C(=O)COP(=O)(O)O [dexamethasone phosphate, reference compound]",Tumor CD3 expression (immunohistochemistry),"A20 B cell lymphoma [3]; 7, 18, 25 mg/kg DP vs placebo",visually decreased
same,Tumor NKp46 staining,"A20 B cell lymphoma [3]; 7, 18, 25 mg/kg DP vs placebo",visual increase
same,HistoTox Labs Necrosis H&E (0-5),"A20 B cell lymphoma [3]; individual tumors, 18 mg/kg, tumor 158 mm^3 at dosing",greatest degree of necrosis
same,Apoptosis,[4],no in vitro apoptosis was observed
C[C@H]1C[C@H]2[C@@H]3CCC4=CC(=O)C=C[C@]4(C)[C@@]3(F)[C@@H](O)C[C@]2(C)[C@@]1(O)C(=O)CO [betamethasone],Time after treatment at which AVM-NKT cells appear in peripheral blood,AVM-NKT cells,around 48 hours
C[C@@H]1C[C@H]2[C@@H]3CCC4=CC(=O)C=C[C@]4(C)[C@@]3(F)[C@@H](O)C[C@]2(C)[C@@]1(O)C(=O)CO [dexamethasone],Apoptosis of A20 cells,A20 cells,about 30%
same,Time after treatment at which AVM-NKT cells appear in peripheral blood,AVM-NKT cells,around 48 hours
same,Time to induction of AVM-NKT cells in the spleen,"AVM-NKT cells; normal mice, after dexamethasone dosing",≤ 48 h
same,Platelet numbers,[5]; 18 mg/kg HED DP,spared; also recorded: does not affect
same,Number of live hematopoietic stem cells,"[5]; 18 mg/kg HED DP, 6 hours to 35 days",does not significantly alter
same,Basophils,[5]; [13],reduced only at the 6 hour time point
same,Eosinophils,[5]; [13],reduced only at the 24 and 48 hour time points
same,HSCs and MSCs,[5]; [13],spared or increased
same,RBCs,[5]; [13],spared
"C[C@@H]1C[C@H]2[C@@H]3CCC4=CC(=O)C=C[C@]4(C)[C@@]3(F)[C@@H](O)C[C@]2(C)[C@@]1(O)C(=O)CO [AVM0703, dexamethasone]",Body weight loss or poor body condition,female NOD mice [6],without the body weight loss or poor body condition
same,Sudden deaths,"A20 B cell lymphoma [3]; 7, 18, 26 mg/kg",no sudden deaths
same,"Spleen, thymus, colon, pancreas weights","A20 B cell lymphoma [3]; 7, 18, 26 mg/kg, at euthanization",No significant differences
same,Additional median survival compared with placebo,"A20 B cell lymphoma [3]; 18 and 26 mg/kg, not significant",approximately 6 days
same,Tumor necrosis,"A20 B cell lymphoma [3]; A20-3 DRC, 18&26 mg/kg",18&26 mg/kg 50-80% necrotic
same,Glucose levels,"A20 B cell lymphoma [7]; 18 mg/kg HED, did not reach hypoglycemic levels",significantly reduced
same,"Tumor weight, tumor example","A20 B cell lymphoma [7]; 25 mg/kg, placebo example 0.54 g",0.086 g
same,"Tumor volume, tumor example","A20 B cell lymphoma [7]; 25 mg/kg, placebo example 956 mm^3",203.25 mm^3
same,Glucose levels,A20 B cell lymphoma [7]; tumor model,not elevated
same,Tumor resorbed,A20 B cell lymphoma [8]; 1 mouse treated at 18 mg/kg,99.5%
same,Overall complete response rate,A20 B cell lymphoma [8]; both subsets of AVM_CANMOD_05,9%
same,MetaMorph Area of Live Tumor,"A20 B cell lymphoma [8]; individual mice, 18 mg/kg",27 AU × 1000
same,MetaMorph Percent Necrotic,"A20 B cell lymphoma [8]; individual mice, 18 mg/kg",69%
same,"HistoTox Labs Necrosis H&E (0-5), Average","A20 B cell lymphoma [9]; 18 mg/kg, n = 15",2.7 n = 15
same,"MetaMorph Area of Live Tumor, Average","A20 B cell lymphoma [9]; 18 mg/kg, n = 18",66^ n = 18 AU × 1000
same,"MetaMorph Percent Necrotic, Average","A20 B cell lymphoma [9]; 18 mg/kg, n = 18",59 n = 18%
same,"MetaMorph Area of Live Tumor, Average","A20 B cell lymphoma [9]; 22 mg/kg, n = 11",87 n = 11 AU × 1000
same,"MetaMorph Percent Necrotic, Average","A20 B cell lymphoma [9]; 22 mg/kg, n = 11",53 n = 11%
same,"MetaMorph Area of Live Tumor, Average","A20 B cell lymphoma [9]; 25 mg/kg, n = 11",77 n = 11 AU × 1000
same,"MetaMorph Percent Necrotic, Average","A20 B cell lymphoma [9]; 25 mg/kg, n = 11",63 n = 11%
same,"MetaMorph Area of Live Tumor, Average",A20 B cell lymphoma [9]; [14],75 n = 40 AU × 1000
same,"MetaMorph Percent Necrotic, Average",A20 B cell lymphoma [9]; [14],59 n = 40%
same,Mice reaching the 20% body weight loss threshold,"A20 B cell lymphoma [10]; after 46 days and 8 doses, n=5",One mouse
same,Body weight,"A20 B cell lymphoma [10]; repeat 18 mg/kg HED DP dosing, up to 7 doses",Does Not Reduce Body Weight
same,Mice with significantly delayed onset,female NOD mice [2]; AVM0703 alone,60%
same,Mice in which diabetes was prevented,"female NOD mice [2]; AVM0703 alone, 5 month study",40%
same,First Onset of hyperglycemia (weeks of age),female NOD mice [2],20 weeks of age
same,% Hyperglycemic at 22 wks of age,female NOD mice [2],60%
same,Median Time to diabetes (days after 10 wks of age),female NOD mice [2],113 days
same,Body condition compared with all other groups,female NOD mice [2]; throughout the 5 month study,significantly better body condition
same,Day after tumor inoculation on which one mouse was found dead,[11]; 18 mg/kg weekly,89 days
same,Tumor lysis,[11]; one treated mouse,Significant tumor lysis; also recorded: Evidence of Tumor Lysis Syndrome
C[C@@H]1C[C@H]2[C@@H]3CCC4=CC(=O)C=C[C@]4(C)[C@@]3(F)[C@@H](O)C[C@]2(C)[C@@]1(O)C(=O)CO [dexamethasone base],Induction of AVM-NKT cells (dose escalation),AVM-NKT cells; 15 mg/kg HED,particularly robust production
same,Induction of AVM-NKT cells (dose escalation),AVM-NKT cells; 6+6 mg/kg HED dosing schedule,particularly robust production
same,Induction of AVM-NKT cells (dose escalation),AVM-NKT cells; single dose between 6-12 mg/kg HED,can induce AVM-NKT cells
C[C@]12C=CC(=O)C=C1CC[C@@H]1[C@@H]2C(=O)C[C@@]2(C)[C@H]1CC[C@]2(O)C(=O)CO [prednisone],Biologic half-life,[12],about 20 hours
